Test results taken from patent publication US20060030719A1, “Cis-3,5-disubstituted-dihydro-furan-2-ones and the preparation and use thereof” (priority 2004, published 2006).

Compound: C[C@@H]1C[C@H](CC2CCCCC2)C(=O)O1 (relative stereo) [Example 20, cis-3-cyclohexylmethyl-5-methyl-dihydro-furan-2-one]
- melting point: 60 to 62 °C
